Data: BindingDB's records for patent US20240034729 (Wuhan Ll Science and Technology Development, 2024)
pIC50: −log10 of the molar value.

Each compound was assayed against T1, P2X purinoceptor 3 (Homo sapiens, UniProt P56373) (assay: Evaluation of In Vitro Biological Activity).
T1 sequence (P56373 whole entry): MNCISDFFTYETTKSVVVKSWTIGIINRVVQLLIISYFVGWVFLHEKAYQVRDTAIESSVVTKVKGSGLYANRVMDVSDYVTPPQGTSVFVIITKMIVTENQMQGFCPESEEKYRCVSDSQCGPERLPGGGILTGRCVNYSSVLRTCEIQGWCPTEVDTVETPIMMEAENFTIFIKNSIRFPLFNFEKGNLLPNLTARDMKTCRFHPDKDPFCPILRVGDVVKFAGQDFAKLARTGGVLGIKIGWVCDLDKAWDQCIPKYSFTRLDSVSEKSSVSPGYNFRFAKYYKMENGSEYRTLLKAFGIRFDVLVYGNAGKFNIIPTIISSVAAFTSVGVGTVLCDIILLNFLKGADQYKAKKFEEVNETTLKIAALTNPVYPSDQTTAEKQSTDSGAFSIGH
Protocol: Each well was added with 10 μL of test compound (which was dissolved in DMSO at a concentration of 10 mM and serially diluted with buffer) or vehicle, and then was left to equilibrate for 30 min at room temperature.

| SMILES | pIC50 |
| --- | --- |
| COC(=O)N1CCO[C@@H](Cc2c(-c3c(F)cc(-c4ncccn4)cc3F)nc3cc(C)ccn23)C1 [US20240034729, Compound 18] | > 6.00 |
| COC(=O)N1CCO[C@@H](Cc2c(-c3c(F)cc(C#N)cc3F)nc3cc(C)ccn23)C1 [US20240034729, Compound 6] | > 6.00 |
| COC(=O)N1CCO[C@@H](Cc2c(-c3c(F)cc(-n4cnnn4)cc3F)nc3cc(C)ccn23)C1 [US20240034729, Compound 58] | > 8.00 |
| COC(=O)N1CCO[C@@H](Cc2c(-c3c(F)cc(CC(N)=O)cc3F)nc3cc(C)ccn23)C1 [US20240034729, Compound 63] | > 6.00 |
| COC(=O)N1CCO[C@@H](Cc2c(-c3c(F)cc(-c4nc(C5(C(=O)O)CC5)c[nH]4)cc3F)nc3cc(C)ccn23)C1 [US20240034729, Compound 59] | > 8.00 |
| COC(=O)N1CCO[C@@H](Cc2c(-c3c(F)cc(NC(=O)/C=C/C(N)=O)cc3F)nc3cc(C)ccn23)C1 [US20240034729, Compound 29] | > 8.00 |
| CCC(=O)N1CCO[C@@H](Cc2c(-c3c(F)cc(-c4ncc[nH]4)cc3F)nc3cc(C)ccn23)C1 [US20240034729, Compound 52] | > 8.00 |
| COC(=O)N1CCO[C@@H](Cc2c(-c3c(F)cc(NC4CCC(=O)C4)cc3F)nc3cc(C)ccn23)C1 (some centres undefined) [US20240034729, Compound 79] | > 7.00 |
| COC(=O)N1CCO[C@@H](Cc2c(-c3c(F)cc(-c4ccc(O)cn4)cc3F)nc3cc(C)ccn23)C1 [US20240034729, Compound 147] | > 7.00 |
| COC(=O)N1CCO[C@@H](Cc2c(-c3c(F)cc(N4CC=CC4=O)cc3F)nc3cc(C)ccn23)C1 [US20240034729, Compound 169] | > 8.00 |
| COC(=O)N1CCO[C@@H](Cc2c(-c3c(F)cc(NC(=O)C4(C#N)CC4)cc3F)nc3cc(C)ccn23)C1 [US20240034729, Compound 89] | > 7.00 |
| COC(=O)N1CCO[C@@H](Cc2c(-c3c(F)cc(-c4nn[nH]n4)cc3F)nc3cc(C)ccn23)C1 [US20240034729, Compound 104] | > 6.00 |
| COC(=O)N1CCO[C@@H](Cc2c(-c3c(F)cc(-c4nc(C(C)(C)O)co4)cc3F)nc3cc(C)ccn23)C1 [US20240034729, Compound 119] | > 7.00 |
| COC(=O)N1CCO[C@@H](Cc2c(-c3c(F)cc(-c4ccc(C(N)=O)cn4)cc3F)nc3cc(C)ccn23)C1 [US20240034729, Compound 146] | > 6.00 |
| COC(=O)N1CCO[C@@H](Cc2c(-c3c(F)cc(-c4nc(C5(C#N)CC5)c[nH]4)cc3F)nc3cc(C)ccn23)C1 [US20240034729, Compound 144] | > 7.00 |
| COC(=O)N1CCO[C@@H](Cc2c(-c3c(F)cc(-c4nc(C5(C(N)=O)CC5)c[nH]4)cc3F)nc3cc(C)ccn23)C1 [US20240034729, Compound 133] | > 7.00 |
| COC(=O)N1CCO[C@@H](Cc2c(-c3c(F)cc(-n4cnc(C(N)=O)c4)cc3F)nc3cc(C)ccn23)C1 [US20240034729, Compound 110] | > 7.00 |
| CCC(=O)c1ccn(-c2cc(F)c(-c3nc4cc(C)ccn4c3C[C@H]3CN(C(=O)OC)CCO3)c(F)c2)n1 [US20240034729, Compound 164] | > 7.00 |
| COC(=O)N1CCO[C@@H](Cc2c(-c3c(F)cc(NC(=O)C4(C(=O)OC)CC4)cc3F)nc3cc(C)ccn23)C1 [US20240034729, Compound 97] | > 6.00 |
